# Assay results as given in patent US10738040B2, “Compounds, compositions, and methods for increasing CFTR activity” (Proteostasis Therapeutics, Inc., priority 2014, dated 2020).
# Molecular target: T1, ΔF508-CFTR (Homo sapiens, UniProt P13569, DEL508-508)
# T1 construct: Primary lung epithelial cells homozygous for the Cystic Fibrosis-causing ΔF508 mutation were differentiated; endogenous in cells; host or cells: primary human lung (bronchial) epithelial cells homozygous for ΔF508, differentiated at air-liquid interface
# Test: hBE equivalent current (Ieq) assay
# Assay type: cell-based
# Settings: compound at 10 uM and VX-809 at 1 uM, relative to VX-809 (1 uM); primary lung epithelial cells homozygous for ΔF508, 24 hours treatment; AUC of equivalent chloride current
# Method: ii. hBE Equivalent Current (Ieq) Assay
# Primary lung epithelial cells homozygous for the Cystic Fibrosis-causing ΔF508 mutation were differentiated for a minimum of 4 weeks in an air-liquid interface on Costar 24 well HTS filter plates prior to the equivalent current (Ieq) measurements. Cells were apically mucus-washed for 30 minutes 24 h prior to treatment with compounds. The basolateral media was removed and replaced with media containing the compound of interest diluted to its final concentration from DMSO stocks. Treated cells were incubated at 37° C. and 5% CO2 for 24 hours. At the end of the treatment period, the media was changed to the Ieq experimental solution for 30 minutes before the experiment and plates are maintained in a CO2-free incubator during this period. The plates containing the cells were then placed in pre-warmed heating blocks at 36° ° C.±0.5 for 15 minutes before measurements are taken. The transepithelial voltage (VT) and conductance (GT) were measured using a custom 24 channel current clamp (TECC-24) with 24 well electrode manifold. The Ieq assay measurements were made following additions with standardized time periods: • 1. The baseline VT and GT values were measured for approximately 20 minutes. • 2. Benzamil was added to block ENaC for 15 minutes. • 3. Forskolin plus VX-770 (ivacaftor) were added to maximally activate ΔF508-CFTR for 27 minutes. • 4. Bumetanide was added to inhibit the NaK2Cl cotransporter and shut-off secretion of chloride.
# The activity data captured was the area under the curve (AUC) for the traces of the equivalent chloride current. The AUC was collected from the time of the forskolin/VX-770 addition until the inhibition by bumetanide addition. Correction in response to compound treatment was scored as the increase in the AUC for compound-treated samples over that of vehicle-treated samples.
# T1 sequence (P13569 with tags, fused parts or gaps DEL508-508): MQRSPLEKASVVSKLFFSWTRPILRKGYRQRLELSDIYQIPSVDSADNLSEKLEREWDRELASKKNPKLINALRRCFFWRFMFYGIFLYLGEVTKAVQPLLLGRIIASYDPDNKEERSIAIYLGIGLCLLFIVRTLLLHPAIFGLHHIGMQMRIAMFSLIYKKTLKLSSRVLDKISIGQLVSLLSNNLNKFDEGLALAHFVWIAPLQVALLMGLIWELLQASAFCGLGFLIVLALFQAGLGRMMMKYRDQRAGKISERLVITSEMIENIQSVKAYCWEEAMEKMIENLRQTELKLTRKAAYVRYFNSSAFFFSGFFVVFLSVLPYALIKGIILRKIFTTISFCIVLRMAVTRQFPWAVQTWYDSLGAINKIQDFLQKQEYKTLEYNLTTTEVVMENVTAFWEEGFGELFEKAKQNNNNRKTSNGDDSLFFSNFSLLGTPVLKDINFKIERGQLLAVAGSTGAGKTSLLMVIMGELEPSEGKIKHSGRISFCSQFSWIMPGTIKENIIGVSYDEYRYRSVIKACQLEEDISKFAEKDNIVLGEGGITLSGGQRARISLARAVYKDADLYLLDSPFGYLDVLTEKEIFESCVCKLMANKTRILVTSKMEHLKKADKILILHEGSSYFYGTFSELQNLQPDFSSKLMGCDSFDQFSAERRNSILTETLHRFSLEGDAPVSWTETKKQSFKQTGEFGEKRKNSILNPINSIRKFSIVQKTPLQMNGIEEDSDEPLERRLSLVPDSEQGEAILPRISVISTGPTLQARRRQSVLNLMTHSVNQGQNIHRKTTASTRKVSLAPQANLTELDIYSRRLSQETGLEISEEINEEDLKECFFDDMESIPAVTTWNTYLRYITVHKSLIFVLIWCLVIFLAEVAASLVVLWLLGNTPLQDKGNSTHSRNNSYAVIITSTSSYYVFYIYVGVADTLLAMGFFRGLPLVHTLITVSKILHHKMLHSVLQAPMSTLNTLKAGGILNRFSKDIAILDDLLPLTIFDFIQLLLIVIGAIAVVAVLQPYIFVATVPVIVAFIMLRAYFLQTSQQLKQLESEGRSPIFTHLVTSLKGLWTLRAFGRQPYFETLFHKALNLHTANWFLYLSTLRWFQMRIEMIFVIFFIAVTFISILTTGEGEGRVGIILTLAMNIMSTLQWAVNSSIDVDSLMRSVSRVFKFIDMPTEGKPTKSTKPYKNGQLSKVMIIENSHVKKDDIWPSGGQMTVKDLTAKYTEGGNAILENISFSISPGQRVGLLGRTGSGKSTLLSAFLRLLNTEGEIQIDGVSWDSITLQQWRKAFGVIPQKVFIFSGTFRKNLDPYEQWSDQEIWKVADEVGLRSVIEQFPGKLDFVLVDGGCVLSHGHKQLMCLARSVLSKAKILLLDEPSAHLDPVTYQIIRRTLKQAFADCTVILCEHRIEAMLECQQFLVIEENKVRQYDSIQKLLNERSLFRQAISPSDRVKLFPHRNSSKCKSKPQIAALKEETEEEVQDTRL
row,Structure (SMILES),Ieq (% VX-809)
1,O=C(N[C@H]1C[C@H](CCO)C1)c1cc(-c2ccccc2)on1,** (activity ≥200% of VX-809 (1 uM) with compound at 10 uM and VX-809 at 1 uM)
2,C[C@@H](O)c1nnc(C2CCCC(NC(=O)c3cc(-c4ccccc4)on3)C2)o1 (some centres unmarked),* (activity 100-200% of VX-809 (1 uM) with compound at 10 uM and VX-809 at 1 uM)
3,C[C@@H](O)c1nnc([C@H]2C[C@@H](NC(=O)c3cc(-c4ccc(F)cc4F)on3)C2)o1,* (activity 100-200% of VX-809 (1 uM) with compound at 10 uM and VX-809 at 1 uM)
4,C[C@@H](O)c1nnc(C2CC(NC(=O)c3cc(-c4ccccc4F)on3)C2)o1 (some centres unmarked),* (activity 100-200% of VX-809 (1 uM) with compound at 10 uM and VX-809 at 1 uM)
5,C[C@@H](O)c1nc([C@H]2C[C@@H](NC(=O)c3cc(-c4ccccc4)on3)C2)no1,* (activity 100-200% of VX-809 (1 uM) with compound at 10 uM and VX-809 at 1 uM)
6,C[C@H](O)c1cn([C@H]2C[C@H](NC(=O)c3cc(-c4ccccc4)on3)C2)nn1,** (activity ≥200% of VX-809 (1 uM) with compound at 10 uM and VX-809 at 1 uM)
7,C[C@@H](O)c1nnc([C@H]2C[C@@H](NC(=O)c3cc(-c4cccc(O)c4)on3)C2)o1,* (activity 100-200% of VX-809 (1 uM) with compound at 10 uM and VX-809 at 1 uM)
8,O=C(NC1CC(n2cc(CO)cn2)C1)c1cc(-c2ccccc2)on1 (centres unmarked),** (activity ≥200% of VX-809 (1 uM) with compound at 10 uM and VX-809 at 1 uM)
9,O=C(NC1CC(n2ccc(CO)n2)C1)c1cc(-c2ccccc2)on1 (centres unmarked),** (activity ≥200% of VX-809 (1 uM) with compound at 10 uM and VX-809 at 1 uM)
10,C[C@@H](O)c1nnc([C@H]2C[C@@H](NC(=O)c3cc(-c4ccc(O)c(O)c4)on3)C2)o1,* (activity 100-200% of VX-809 (1 uM) with compound at 10 uM and VX-809 at 1 uM)
11,O=C(N[C@H]1C[C@H](n2cc(CO)cn2)C1)c1cc(-c2ccccc2)on1,* (activity 100-200% of VX-809 (1 uM) with compound at 10 uM and VX-809 at 1 uM)
12,C[C@@H](O)c1nnc([C@H]2C[C@@H](NC(=O)c3cc(-c4ccc(F)c(F)c4)on3)C2)o1,* (activity 100-200% of VX-809 (1 uM) with compound at 10 uM and VX-809 at 1 uM)
13,C[C@@H](O)c1nnc([C@H]2C[C@@H](NC(=O)c3cc(-c4ccc(O)cc4)on3)C2)o1,* (activity 100-200% of VX-809 (1 uM) with compound at 10 uM and VX-809 at 1 uM)
14,C[C@H](O)c1ccn([C@H]2C[C@H](NC(=O)c3cc(-c4ccccc4)on3)C2)n1,** (activity ≥200% of VX-809 (1 uM) with compound at 10 uM and VX-809 at 1 uM)
15,O=C(N[C@H]1C[C@@H](c2nc(CO)no2)C1)c1cc(-c2ccccc2)on1,** (activity ≥200% of VX-809 (1 uM) with compound at 10 uM and VX-809 at 1 uM)
16,C[C@H](O)c1nnc(C[C@H]2C[C@@H](NC(=O)c3cc(-c4ccccc4)on3)C2)s1,** (activity ≥200% of VX-809 (1 uM) with compound at 10 uM and VX-809 at 1 uM)
17,CC(=O)O[C@H](C)c1nnc([C@H]2C[C@H](NC(=O)c3cc(-c4ccccc4)on3)C2)o1,** (activity ≥200% of VX-809 (1 uM) with compound at 10 uM and VX-809 at 1 uM)
18,C[C@H](O)c1nnc(CC2CC(NC(=O)c3cc(-c4ccccc4)on3)C2)o1 (some centres unmarked),* (activity 100-200% of VX-809 (1 uM) with compound at 10 uM and VX-809 at 1 uM)
19,C[C@@H](O)c1nnc(C[C@H]2C[C@@H](NC(=O)c3cc(-c4ccccc4)on3)C2)o1,** (activity ≥200% of VX-809 (1 uM) with compound at 10 uM and VX-809 at 1 uM)
20,CC(C)CO[C@H](C)c1nnc([C@H]2C[C@H](NC(=O)c3cc(-c4ccccc4)on3)C2)o1,* (activity 100-200% of VX-809 (1 uM) with compound at 10 uM and VX-809 at 1 uM)
21,O=C(N[C@H]1C[C@H](n2ccc(CO)n2)C1)c1cc(-c2ccccc2)on1,** (activity ≥200% of VX-809 (1 uM) with compound at 10 uM and VX-809 at 1 uM)

row,Structure (SMILES),Ieq (% VX-809)
1,C[C@H](O)c1nnc(C[C@H]2C[C@H](NC(=O)c3cc(-c4ccccc4)on3)C2)o1,** (activity ≥200% of VX-809 (1 uM) with compound at 10 uM and VX-809 at 1 uM)
2,C[C@@H](O)c1ccn([C@H]2C[C@H](NC(=O)c3cc(-c4ccccc4)on3)C2)n1,** (activity ≥200% of VX-809 (1 uM) with compound at 10 uM and VX-809 at 1 uM)
3,O=C(N[C@H]1C[C@@H](c2nnc(CO)o2)C1)c1cc(-c2ccccc2)on1,** (activity ≥200% of VX-809 (1 uM) with compound at 10 uM and VX-809 at 1 uM)
4,C[C@H](O)c1noc(C2CC(NC(=O)c3cc(-c4ccccc4)on3)C2)n1 (some centres unmarked),** (activity ≥200% of VX-809 (1 uM) with compound at 10 uM and VX-809 at 1 uM)
5,C[C@@H](O)c1nnc([C@H]2C[C@@H](NC(=O)c3cc(-c4cccc(F)c4)on3)C2)o1,* (activity 100-200% of VX-809 (1 uM) with compound at 10 uM and VX-809 at 1 uM)
6,O=C(N[C@H]1C[C@@H](CCO)C1)c1cc(-c2ccccc2)on1,** (activity ≥200% of VX-809 (1 uM) with compound at 10 uM and VX-809 at 1 uM)
7,C[C@H](O)c1cnn([C@H]2C[C@H](NC(=O)c3cc(-c4ccccc4)on3)C2)c1,** (activity ≥200% of VX-809 (1 uM) with compound at 10 uM and VX-809 at 1 uM)
8,C[C@@H](OC(=O)c1ccccc1)c1nnc([C@H]2C[C@H](NC(=O)c3cc(-c4ccccc4)on3)C2)o1,* (activity 100-200% of VX-809 (1 uM) with compound at 10 uM and VX-809 at 1 uM)
9,C[C@H](O)c1noc([C@H]2C[C@@H](NC(=O)c3cc(-c4ccccc4)on3)C2)n1,* (activity 100-200% of VX-809 (1 uM) with compound at 10 uM and VX-809 at 1 uM)
10,C[C@@H](O)c1noc(C2CC(NC(=O)c3cc(-c4ccccc4)on3)C2)n1 (some centres unmarked),** (activity ≥200% of VX-809 (1 uM) with compound at 10 uM and VX-809 at 1 uM)
11,O=C(N[C@H]1CC[C@@H](c2nnc(CO)o2)CC1)c1cc(-c2ccccc2)on1,* (activity 100-200% of VX-809 (1 uM) with compound at 10 uM and VX-809 at 1 uM)
12,C[C@@H](O)c1noc([C@H]2C[C@@H](NC(=O)c3cc(-c4ccccc4)on3)C2)n1,* (activity 100-200% of VX-809 (1 uM) with compound at 10 uM and VX-809 at 1 uM)
13,C[C@@H](O)c1cnn([C@H]2C[C@H](NC(=O)c3cc(-c4ccccc4)on3)C2)c1,** (activity ≥200% of VX-809 (1 uM) with compound at 10 uM and VX-809 at 1 uM)
14,O=C(NC1CCCC(n2cc(CO)nn2)C1)c1cc(-c2ccccc2)on1 (centres unmarked),* (activity 100-200% of VX-809 (1 uM) with compound at 10 uM and VX-809 at 1 uM)
15,CS(=O)(=O)NC[C@H]1C[C@@H](NC(=O)c2cc(-c3ccccc3)on2)C1,* (activity 100-200% of VX-809 (1 uM) with compound at 10 uM and VX-809 at 1 uM)
16,C[C@H](O)c1nc([C@H]2C[C@@H](NC(=O)c3cc(-c4ccccc4)on3)C2)no1,* (activity 100-200% of VX-809 (1 uM) with compound at 10 uM and VX-809 at 1 uM)
17,C[C@@H](O)c1nnc(C[C@H]2C[C@@H](NC(=O)c3cc(-c4ccccc4)on3)C2)s1,** (activity ≥200% of VX-809 (1 uM) with compound at 10 uM and VX-809 at 1 uM)
18,O=C(N[C@H]1C[C@@H](c2nnc([C@@H](O)CO)s2)C1)c1cc(-c2ccccc2)on1,** (activity ≥200% of VX-809 (1 uM) with compound at 10 uM and VX-809 at 1 uM)
19,O=C(N[C@H]1C[C@H](c2nnc(C3CCC3)o2)C1)c1cc(-c2ccccc2)on1,** (activity ≥200% of VX-809 (1 uM) with compound at 10 uM and VX-809 at 1 uM)
20,C[C@@H](O)c1cn([C@H]2C[C@H](NC(=O)c3cc(-c4ccccc4)on3)C2)nn1,** (activity ≥200% of VX-809 (1 uM) with compound at 10 uM and VX-809 at 1 uM)
